What was measured:
rat model of OCD [1] = test: Observing Response Task (ORT), rat model of compulsive-like checking in OCD (sign-trackers = OCD model, goal-trackers = controls); assay type: in vivo
Excerpt: OCD may be studied using animal models and such models may be used to evaluate compounds of the present invention. One model may be a rat model of compulsive-like checking behaviour described by Eagle et al., Behav. Brain Res, 1 May 2014; 264(100): 207-29. Briefly, rats are trained to work for palatable food which is unpredictably available for responding on one of two levers in an operant chamber. The rats can gain information about the location of the effective lever by making ‘observing responses’ on a third lever at the rear of the chamber. Predictably, responding on this lever is increased under conditions of uncertainty, as this adaptive checking increases the chance of food reward. However, some rats respond excessively on the observing lever and this can be disadvantageous or ‘non-functional’. This excessive checking behaviour is boosted by treatment with dopamine D2 receptor drugs such as quinpirole and also if there is a prior tendency in rats to over-respond to conditioning signals for food (‘sign-tracking’), associated with elevated dopamine activity in the nucleus accumbens. Rats who respond to the food itself are called goal-trackers. […] Moreover, in a human version of this test (i.e. involving essentially the same task for humans as for rodents), it has been shown that OCD patients check more than healthy control volunteers (Morein-Zamir et al., Q. J. Exp. Psychol. (Hove), 2018 October; 71(10): 2052-2069).
Male Lister-hooded rats (n=48, Charles River, UK) were group-housed in fours and maintained at approximately 95% free-feeding weight. Experiments were conducted during the dark phase of a reversed 12-hour light-dark cycle (lights off at 07:00). This research was conducted on UK Home Office Project Licence PA9FBFA9F and was regulated under the Animals (Scientific Procedures) Act 1986 Amendment Regulations 2012 following ethical review by the University of Cambridge Animal Welfare and Ethical Review Body.
The 48 male Lister-Hooded rats were trained on the Observing Response Task (ORT) and classified as sign-trackers […] or goal-trackers (n=24) following AutoShaping training, as described previously. Based on the research described above, the sign-tracker rats provide the OCD model and the goal-trackers are controls.
The ‘drug treatment’ data refer to behaviour under the influence of the specific dose (3 mg/kg or 10 mg/kg), 2 hours after an intraperitoneal injection. The ‘0 mg/kg’ data refer to an intraperitoneal injection of the 0.9% (w/v) physiological saline vehicle.
Rats were divided into groups to receive different doses of AZD-8529 in a counterbalanced order. […] “mg/kg” refers to a dose that was determined based on the body weight of the rat. For example, a rat weighing 0.5 kg receiving a dose of 3 mg/kg would receive a dose of 1.5 mg.
All statistical analyses were conducted using IBM SPSS Statistics v27. Data were analysed using repeated measures ANOVAs. Omnibus ANOVAs were first conducted to determine whether the order of drug dosing influenced the behavioural outcomes, and whether there were differences in baseline levels of responding. Planned ANOVAs assessing the drug administration sessions only were subsequently conducted.

rat model of OCD [2] = test: as above; assay type: in vivo; details: rats, 30 mg/kg single intraperitoneal dose

Compound: Cc1cc(-c2nc(CN3CCNCC3)no2)cc2c1C(=O)N(Cc1ccc(OC(F)(F)F)cc1)C2 [AZD-8529, 7-methyl-5-(3-piperazin-1-ylmethyl-[1,2,4]oxadiazol-5-yl)-2-(4-trifluoromethoxybenzyl)-2,3-dihydroisoindol-1-one]
- number of rewards earned during the session (rat model of OCD [1]; 3 mg/kg i.p. vs vehicle, full cohort, p=0.91): equivalent numbers of rewards were earned
- increased responding on the active lever during the cue (discrimination with light on) (rat model of OCD [1]; 3 mg/kg i.p., full cohort, p=0.38): not seen
- number of rewards earned during the session (rat model of OCD [1]; 10 mg/kg i.p., full cohort, compared to vehicle and 3 mg/kg, p<0.001): reduced the numbers of reward earned
- increased responding on the active lever during the cue (discrimination with light on) (rat model of OCD [1]; 10 mg/kg i.p., full cohort, p=0.21): not seen
- dysfunctional checking (eOLPs) (rat model of OCD [1]; OCD model (sign-trackers), 3 mg/kg i.p. vs 0 mg/kg control, p<0.002): reduction in dysfunctional checking
- dysfunctional checking (eOLPs) (rat model of OCD [1]; OCD model (sign-trackers), 10 mg/kg i.p. vs 0 mg/kg control, p<0.002, not lower than 3 mg/kg (p=0.94)): reduction in dysfunctional checking
- functional checking (Observing Lever Presses, OLPs) (rat model of OCD [1]; OCD model (sign-trackers), 3 and 10 mg/kg i.p., 2 hours after injection, p<0.001): reduced functional checking in a dose-dependent manner
- functional checking (Observing Lever Presses, OLPs) (rat model of OCD [1]; controls (goal-trackers), 3 and 10 mg/kg i.p., 2 hours after injection, p=0.008): reduced functional checking in a dose-dependent manner
- dysfunctional checking (eOLPs) (rat model of OCD [1]; controls (goal-trackers), 3 and 10 mg/kg i.p., all p's>0.079): no overall reduction in dysfunctional checking
- functional checking (Observing Lever Presses, OLPs) (rat model of OCD [1]; full cohort (sign-trackers plus goal-trackers), 3 and 10 mg/kg i.p. vs 0 mg/kg, 2 hours after injection, mesylate salt, p<0.001): reduced functional checking in a dose-dependent manner
- dysfunctional checking (Extra Observing Lever Presses, eOLPs) (rat model of OCD [1]; full cohort, 3 and 10 mg/kg i.p. vs 0 mg/kg, 2 hours after injection, p<0.001): reduced dysfunctional checking in a dose-dependent manner
- adverse effects (rat model of OCD [2]): unexpected adverse gastrointestinal effects

Source: patent US20240050427A1, “TREATMENTS FOR OBSESSIVE COMPULSIVE DISORDER” (SIRGARTAN HOLDINGS LTD, priority 2022, published 2024)
